Measured values from the Deep4Chem optical property database.

Experiment: solvent given as SMILES

With COc1ccc2[nH]cc(/C=C/C3=[NH+]c4cccc5cccc3c45)c2c1 the emission maximum (in CO) was 583 nm.
Cc1c2cc3c(-c4ccccc4)c4c(c(-c5ccccc5)c3cc2c2n1[B-](F)(F)[n+]1c(C)c3cc5c(-c6ccccc6)c6c7cccc8cccc(c6c(-c6ccccc6)c5cc3c1=C2c1ccccc1)c87)-c1cccc2cccc-4c12 showed an emission maximum (in ClCCl) of 783 nm.
C(#Cc1cc(C#Cc2cccs2)c(C#Cc2cccs2)c(C#Cc2cccs2)c1C#Cc1cccs1)c1cccs1 gave an emission maximum (in ClCCl) of 425 nm.
F[B-]1(F)OC(c2ccc(C(F)(F)F)cc2)=Cc2ccc3ccccc3[n+]21 gave an emission maximum (in ClC(Cl)Cl) of 434 nm.
In the case of CC1=CC(C)=[N+]2C1=Cc1c3ccccc3c(-c3[nH]c(C)cc3C)n1[B-]2(F)F, the emission maximum (in ClCCl) was 631 nm.
In the case of CCCCCCCCOc1ccc(-c2c3c4n(c(-c5ccc(OCCCCCCCC)cc5)c3c3n2[B-](F)(F)[n+]2c(sc5ccccc52)N=3)[B-](F)(F)[n+]2c(sc3ccccc32)N=4)cc1, the emission maximum (in ClC(Cl)Cl) was 676 nm.
Compound c1ccc2c(c1)cc(-c1cc(-c3nccs3)nc(-c3nccs3)c1)c1ccccc12 has an emission maximum (in CC#N) of 403 nm, an emission maximum (in CCCCCC) of 361 nm and an emission maximum (in CO) of 431 nm. For the same compound, the emission maximum (in ClC(Cl)Cl) was 383 nm.
With COC(=O)c1ccc(C#Cc2ccc(N(C)C)cc2)cc1 the emission maximum (in C1CCCCC1) was 426 nm, the emission maximum (in C1CCOC1) was 482 nm and the emission maximum (in C1COCCO1) was 450 nm. It also gave an emission maximum (in CC1CCCO1) of 464.51 nm, an emission maximum (in CC#N) of 544.01 nm and an emission maximum (in CC(C)=O) of 426.99 nm. The emission maximum (in CC(C)CC(C)(C)C) was 377.5 nm, the emission maximum (in CC(C)O) was 441.5 nm and the emission maximum (in CCCCCCCCCCCCCCCC) was 370 nm. It also gave an emission maximum (in CCCCCCCCCCCCCCCCCl) of 382.5 nm, an emission maximum (in CCOC(C)=O) of 470.5 nm and an emission maximum (in CCOCC) of 458.51 nm. It also gave an emission maximum (in CN(C)C=O) of 524 nm, an emission maximum (in CO) of 465.01 nm and an emission maximum (in CS(C)=O) of 548.49 nm. For the same compound, the emission maximum (in Cc1ccccc1) was 381 nm.
CCN(CC)c1ccc(/C=N/c2cc3ccccc3cc2/N=C/c2ccc(N(CC)CC)cc2O)c(O)c1 gave an emission maximum (in CC#N) of 512 nm, an emission maximum (in CN(C)C=O) of 516 nm and an emission maximum (in ClCCl) of 539 nm.
In the case of Fc1ccccc1-c1nc2sc3ccccc3c2s1, the emission maximum (in CS(C)=O) was 407 nm.
C#CCn1c2ccccc2c2cc(/C=C/C3=[N+]4C(=C(c5ccc(I)cc5)c5c(C)cc(/C=C/c6ccc7c(c6)c6ccccc6n7CC#C)n5[B-]4(F)F)C(C)=C3)ccc21 gave an emission maximum (in CC#N) of 688 nm, an emission maximum (in CS(C)=O) of 703 nm and an emission maximum (in ClC(Cl)Cl) of 691 nm.
Compound CC[N+]1(CC)CN2C(C)=CC(C)=C(C(=O)[O-])C2=N1 has an emission maximum (in CN(C)C=O) of 453 nm and an emission maximum (in O) of 449 nm.
Compound COC(=O)c1ccc(/C=C2\N=C(c3ccc(OC)c(OC)c3)OC2=O)cc1 has an emission maximum (in C1COCCO1) of 474 nm.
Cc1cc(C)c(C2=C3C=C(c4ccc(C(C)(C)C)cc4)C(c4ccc(C(C)(C)C)cc4)=[N+]3[B-](F)(F)n3c2cc(-c2ccc(C(C)(C)C)cc2)c3-c2ccc(C(C)(C)C)cc2)c(C)c1 showed an emission maximum (in C1CCCCC1) of 639 nm, an emission maximum (in C1CCOC1) of 628 nm and an emission maximum (in CC#N) of 643 nm. The emission maximum (in Cc1ccccc1) was 645 nm and the emission maximum (in ClCCl) was 644 nm.
With CC(C)(C)NC(=O)c1cccc2ccc3c4cc(F)ccc4c4ccc(F)cc4c3c12 the emission maximum (in ClCCl) was 385 nm.
For CC/[NH+]=c1\cc2oc3cc(NCCN)c4ccccc4c3nc-2cc1C, the emission maximum (in CCO) was 647 nm and the emission maximum (in O) was 647 nm.
Work on FC(F)(F)c1ccc(/C=C/c2ccc(-c3nnc(-c4ccc(-c5cc6ccccc6s5)cc4)o3)cc2)cc1 yielded an emission maximum (in CC#N) of 388 nm, an emission maximum (in CC(C)=O) of 390 nm and an emission maximum (in CCCCCCCC) of 387 nm. For the same compound, the emission maximum (in CCCCCCCCCCO) was 395 nm, the emission maximum (in CCCCCCCCO) was 394 nm and the emission maximum (in CCCCCO) was 393 nm. For the same compound, the emission maximum (in CCCO) was 391 nm, the emission maximum (in CN(C)C=O) was 416 nm and the emission maximum (in CO) was 389 nm. For the same compound, the emission maximum (in CS(C)=O) was 397 nm.
F[B-]1(F)OC(c2ccc(N3CCCC3)cc2)=Cc2cccc[n+]21 showed an emission maximum (in ClC(Cl)Cl) of 496 nm.
COc1ccc(/C=C/c2nc(/C=C/c3ccc(N(C)C)cc3)cc(/C=C/c3ccc(N(C)C)cc3)n2)cc1 showed an emission maximum (in C1CCOC1) of 522 nm, an emission maximum (in CC#N) of 581 nm and an emission maximum (in CC(C)=O) of 559 nm. For the same compound, the emission maximum (in CCCCCCC) was 450 nm, the emission maximum (in CS(C)=O) was 598 nm and the emission maximum (in Cc1ccccc1) was 480 nm. It also gave an emission maximum (in ClCCl) of 533 nm.
For CC1=CC2=Nc3nc(C)[n+](C)cc3CN2C=C1, the emission maximum (in CC#N) was 432 nm, the emission maximum (in CCO) was 433 nm and the emission maximum (in O) was 426 nm.
Compound c1ccc(-c2nc(-c3ccc(N4c5ccccc5C(c5ccccc5)(c5ccccc5)c5ccccc54)cc3)cc(-c3ccccn3)n2)cc1 has an emission maximum (in Cc1ccccc1) of 460 nm and an emission maximum (in O=P(c1ccccc1)(c1ccccc1)c1ccccc1Oc1ccccc1P(=O)(c1ccccc1)c1ccccc1) of 468 nm.
With COc1ccc(/C=C/C2=CC(/C=C/c3ccc(OC)cc3)=[O+][B-](OC(C)=O)(OC(C)=O)O2)cc1 the emission maximum (in C1CCOC1) was 518 nm, the emission maximum (in CC#N) was 541 nm and the emission maximum (in CC(C)=O) was 531 nm. It also gave an emission maximum (in CS(C)=O) of 548 nm, an emission maximum (in Cc1ccccc1) of 510 nm and an emission maximum (in ClC(Cl)Cl) of 529 nm. The emission maximum (in ClCCl) was 535 nm.
